Twelve compounds from paper PMC8200971, “Design, Synthesis, Biological Evaluation and Silico Prediction of Novel Sinomenine Derivatives” (Molecules, 2021) can be followed below.

Like-named read-outs stand apart in the source and are kept apart here.

Series [1] relates to A549 (human lung adenocarcinoma cell lines). Description: CCK8 cytotoxicity assay. It is filed as cell-based. The settings on record: for IC50: read-out: IC50 A549; for inhibition at 2.5 µM / inhibition at 25 µM: read-out: growth inhibition ratio (mean ± SD). As for the experimental part: (§1) Cytotoxicity screens were performed to assess the in vitro anticancer activity of the synthesized sinomenine derivatives 6a–6l on the various cancer cell lines MCF-7, Hela, SW480, and A549, as well as on Hek293 as a normal cell line, at doses of 2.5 and 25 μM. The obtained inhibition ratios data were used to construct a heat map (Figure 3, Tables S1 and S2) in order to select compounds that exert cancer cell line-specific cytotoxicity. Then, the IC50 values of the promising compound were determined. Cisplatin was used as a reference standard. The antiproliferative activity was based on the evaluation of the percent viability using the CCK8 assay, which is a rapid and sensitive method for determining the number of viable cells in culture. In the presence of electronic coupling reagents, WST-8 can be reduced by a dehydrogenase in the mitochondria to produce a highly water-soluble orange-yellow formazan product. Its color is proportional to the proliferation of the number of viable cells and is related to cytotoxicity. Using a microplate reader to measure the OD value can indirectly reflect the number of living cells at 450 nm wavelength.
(§2) To understand structure–function relationships, these selected compounds were subjected to subsequent analyses. All six compounds (6a and 6c–6g) were further examined to determine their IC50 concentrations on the previously mentioned cell lines, and their efficacy was compared to the reference drug cisplatin. For this, six compounds and cisplatin were evaluated on Hela, MCF-7, SW480, and A549, and on noncancerous Hek293 cell lines at various concentrations for 60 h. IC50 values were calculated (Table 2).
(§3) The MCF-7 (human breast cancer cell lines), Hela (human cervical cancer cell lines), SW480 (human colon adenocarcinoma cell lines), A549 (human lung adenocarcinoma cell lines) and nontoxic normal cells Hek293 (human embryonic kidney cell lines) cells were used to measure the cytotoxicity of the 6a–6l. They were obtained from the Beijing Normal University (Beijing, China). The test cell lines were cultured in DMEM, IMDM, F12 and DMEM nutrient medium containing 10% heat-inactivated fetal bovine serum, […] and 100 units/mL penicillin in a humified, 5% (v/v) CO2 atmosphere at 37 °C.
(§4) Cell viability was estimated using the CCK8 assay. Tumor cells ([…]) viz. MCF-7, Hela, SW480, A549 and nontoxic normal cells Hek293 were seeded in medium containing Corning® 96-well tissue culture plates at confluences of […], respectively, in Incucyte ZOOM. Fresh medium (100 μL) containing different concentrations of the test sample was added after 12 h of seeding. The microtiter plates were incubated at 37 °C in a humidified incubator with 5% CO2 for 60 h. Triplicates from each concentration were used. Negative control cells were incubated without sample and cisplatin as a positive control. At the end of treatment, the numbers of viable cells were determined by the CCK8 test. In brief, the media was removed from the 96 well plates and replaced with 100 μL of fresh culture medium with 10% CCK8 solution added to each well including the untreated controls. The 96 well plates were then incubated at 37 °C and 5% CO2 for 1–4 h. Then, the absorbance was measured at 450 nm using a BMG LABTECH®-POLAR star Omega microplate reader (Ortenberg, Germany) to determine the number of viable cells, and the percentage of viability was calculated as ((ODt- ODb/ODc- ODb)) × 100%, where ODt is the mean optical density of wells treated with the tested sample, ODc is the mean optical density of wells treated with DMSO and ODb is the mean optical density of PBS wells without cells. The relation between surviving cells and drug concentrations were plotted to get the survival curve of each tumor cell line after treatment with the specified compound. […]

Series [2] relates to Hela (human cervical cancer cell lines). The experiment in a line: CCK8 cytotoxicity assay. In kind it is cell-based. The settings on record: for IC50: read-out: IC50 Hela; for inhibition at 2.5 µM / inhibition at 25 µM: read-out: growth inhibition ratio (mean ± SD). On the procedure:
as §1, §2, §3, §4

Series [3] concerns MCF-7 (human breast cancer cell lines). The experiment in a line: CCK8 cytotoxicity assay. In kind it is cell-based. The settings on record: for IC50: read-out: IC50 MCF-7; for inhibition at 2.5 µM / inhibition at 25 µM: read-out: growth inhibition ratio (mean ± SD). On the procedure: as §1, §2, §3, §4
Series [4] concerns SW480 (human colon adenocarcinoma cell lines). The experiment in a line: CCK8 cytotoxicity assay. Conditions: for IC50: read-out: IC50 SW480; for inhibition at 2.5 µM / inhibition at 25 µM: read-out: growth inhibition ratio (mean ± SD). It is filed as cell-based. As for the experimental part:
as §1, §2, §3, §4

The test system of series [5] is Hek293 (human embryonic kidney cell lines). The experiment in a line: CCK8 cytotoxicity assay, normal cells. In kind it is cell-based. The settings on record: for IC50: read-out: IC50 Hek293; for inhibition at 2.5 µM / inhibition at 25 µM: read-out: growth inhibition ratio (mean ± SD). As for the experimental part: as §1, §2, §3, §4
[6] abbreviates: CCK8, 60 h, mean ± SD of three independent experiments.

`COC1=C[C@@H]2[C@@H]3Cc4c(CN5CCCC5)cc(OC)c(OC(=O)Cc5ccccc5C)c4[C@]2(CCN3C)CC1=O` [6f, (4bR,8aS,9S)-3,7-dimethoxy-11-methyl-6-oxo-1-(pyrrolidin-1-ylmethyl)-6,8a,9,10-tetrahydro-5H-9,4b-(epiminoethano)phenanthren-4-yl 2-(o-tolyl)acetate]: the melting point was in the range of 72 to 75 °C. Also, in series [1] (Homo sapiens, A549, 60 h), the concentration for half-maximal inhibition (IC50) is 25.1 ± 1.72 µM, the inhibition at 2.5 µM stood at 25 ± 1.05% and the inhibition at 25 µM was found to be 57.09 ± 0.06%. For the same compound, in series [2] (Homo sapiens, HeLa, 60 h), the 50% inhibitory concentration (IC50) was > 25 µM, the inhibition at 2.5 µM turned out to be 7.82 ± 4.1% and the inhibition at 25 µM was found to be 58.7 ± 2.64%. In series [3] (Homo sapiens, MCF7, 60 h), the IC50 is > 25 µM, the inhibition at 2.5 µM is 0% and the inhibition at 25 µM came out at 31.4 ± 3.72%. Further, in series [4] (Homo sapiens, SW480, 60 h), the IC50 was > 25 µM, the inhibition at 2.5 µM was determined as 20.8 ± 5.63% and the inhibition at 25 µM was 55.7 ± 6.94%. Moreover, in series [5] (Homo sapiens, HEK293, 60 h), the 50% inhibitory concentration (IC50) was determined as 10.1 ± 0.42 µM, the inhibition at 2.5 µM was 16.8 ± 2.39% and the inhibition at 25 µM was 64.3 ± 14.6%.

Consider `COC1=C[C@@H]2[C@@H]3Cc4c(CN5CCCCC5)cc(OC)c(OC(=O)Cc5ccc(OC)c(OC)c5)c4[C@]2(CCN3C)CC1=O` [5c, (4bR,8aS,9S)-3,7-dimethoxy-11-methyl-6-oxo-1-(piperidin-1-ylmethyl)-6,8a,9,10-tetrahydro-5H-9,4b-(epiminoethano)phenanthren-4-yl 2-(3,4-dimethoxyphenyl)acetate], for which the melting point was in the range of 151 to 154 °C.

`COC1=C[C@@H]2[C@@H]3Cc4c(CN5CCCC5)cc(OC)c(OC(=O)Cc5ccc(OC)cc5)c4[C@]2(CCN3C)CC1=O` [6i, (4bR,8aS,9S)-3,7-dimethoxy-11-methyl-6-oxo-1-(pyrrolidin-1-ylmethyl)-6,8a,9,10-tetrahydro-5H-9,4b-(epiminoethano)phenanthren-4-yl 2-(4-methoxyphenyl)acetate] registered a melting point of 76 to 79 °C. For the same compound, in series [1] (Homo sapiens, A549, 60 h), the inhibition at 2.5 µM was 23.5 ± 0.76% and the inhibition at 25 µM is 51.77 ± 0.5%. In series [2] (Homo sapiens, HeLa, 60 h), the inhibition at 2.5 µM amounted to 7.79 ± 6.01% and the inhibition at 25 µM was found to be 29.2 ± 5.29%. In series [3] (Homo sapiens, MCF7, 60 h), the inhibition at 2.5 µM worked out at 11.7 ± 5.99% and the inhibition at 25 µM came out at 0%. Besides, in series [4] (Homo sapiens, SW480, 60 h), the inhibition at 2.5 µM stood at 28.6 ± 9.02% and the inhibition at 25 µM is 38.9 ± 9.65%. For the same compound, in series [5] (Homo sapiens, HEK293, 60 h), the inhibition at 2.5 µM came to 13.3 ± 0.21% and the inhibition at 25 µM is 46.9 ± 16.7%.

Compound `COC1=C[C@@H]2[C@@H]3Cc4c(CN5CCCC5)cc(OC)c(OC(=O)Cc5ccccc5F)c4[C@]2(CCN3C)CC1=O` [6l, (4bR,8aS,9S)-3,7-dimethoxy-11-methyl-6-oxo-1-(pyrrolidin-1-ylmethyl)-6,8a,9,10-tetrahydro-5H-9,4b-(epiminoethano)phenanthren-4-yl 2-(2-fluorophenyl)acetate] yielded a melting point of 178 to 180 °C. Moreover, in series [1] (Homo sapiens, A549, 60 h), the inhibition at 2.5 µM was determined as 13.2 ± 4.88% and the inhibition at 25 µM stood at 47.1 ± 5.4%. Moreover, in series [2] (Homo sapiens, HeLa, 60 h), the inhibition at 2.5 µM came out at 0.61 ± 0.6% and the inhibition at 25 µM came to 29 ± 1.88%. Besides, in series [3] (Homo sapiens, MCF7, 60 h), the inhibition at 2.5 µM was 4.61 ± 4.79% and the inhibition at 25 µM stood at 9.52 ± 8.26%. In series [4] (Homo sapiens, SW480, 60 h), the inhibition at 2.5 µM stood at 3.91 ± 0.85% and the inhibition at 25 µM was found to be 16.5 ± 0.53%. Moreover, in series [5] (Homo sapiens, HEK293, 60 h), the inhibition at 2.5 µM came to 12.7 ± 2.89% and the inhibition at 25 µM turned out to be 68.8 ± 13.3%.

`COC1=C[C@@H]2[C@@H]3Cc4c(CN5CCCCC5)cc(OC)c(OC(=O)Cc5ccccc5Cl)c4[C@]2(CCN3C)CC1=O` [5f, (4bR,8aS,9S)-3,7-dimethoxy-11-methyl-6-oxo-1-(piperidin-1-ylmethyl)-6,8a,9,10-tetrahydro-5H-9,4b-(epiminoethano)phenanthren-4-yl 2-(2-chlorophenyl)acetate] returned a melting point of 188 to 190 °C.

`COC1=C[C@@H]2[C@@H]3Cc4c(CN5CCCCC5)cc(OC)c(OC(=O)Cc5ccccc5)c4[C@]2(CCN3C)CC1=O` [5b, (4bR,8aS,9S)-3,7-dimethoxy-11-methyl-6-oxo-1-(piperidin-1-ylmethyl)-6,8a,9,10-tetrahydro-5H-9,4b-(epiminoethano)phenanthren-4-yl 2-phenylacetate] showed a melting point of 192 to 194 °C.

As for `N.N.[Cl][Pt][Cl]` [Cisplatin, reference compound], the IC50 in series [1] (setting [6]) was 14.3 ± 0.7 µM; in series [2] (setting [6]), 4.57 ± 0.43 µM; in series [3] (setting [6]) it was 3.45 ± 0.82 µM; in series [4] (setting [6]), 1.98 ± 0.15 µM; in series [5] (normal cell line, CCK8, 60 h, mean ± SD of three independent experiments) it was 3.19 ± 0.6 µM.

On to `COC1=C[C@@H]2[C@@H]3Cc4c(CN5CCCCC5)cc(OC)c(OC(=O)Cc5ccc(Cl)cc5)c4[C@]2(CCN3C)CC1=O` [5a, (4bR,8aS,9S)-3,7-dimethoxy-11-methyl-6-oxo-1-(piperidin-1-ylmethyl)-6,8a,9,10-tetrahydro-5H-9,4b-(epiminoethano)phenanthren-4-yl 2-(4-chlorophenyl)acetate], for which the melting point fell in the range of 105 to 107 °C.

Compound `COC1=C[C@@H]2[C@@H]3Cc4c(CN5CCCCC5)cc(OC)c(OC(=O)CCc5ccccc5)c4[C@]2(CCN3C)CC1=O` [5e, (4bR,8aS,9S)-3,7-dimethoxy-11-methyl-6-oxo-1-(piperidin-1-ylmethyl)-6,8a,9,10-tetrahydro-5H-9,4b-(epiminoethano)phenanthren-4-yl 3-phenylpropanoate] yielded a melting point of 181 to 185 °C.

Compound `COC1=C[C@@H]2[C@@H]3Cc4c(CN5CCCCC5)cc(OC)c(OC(=O)Cc5ccccc5C)c4[C@]2(CCN3C)CC1=O` [5d, (4bR,8aS,9S)-3,7-dimethoxy-11-methyl-6-oxo-1-(piperidin-1-ylmethyl)-6,8a,9,10-tetrahydro-5H-9,4b-(epiminoethano)phenanthren-4-yl 2-(o-tolyl)acetate] yielded a melting point of 177 to 178 °C.

Compound `COC1=C[C@@H]2[C@@H]3Cc4c(CN5CCCCC5)cc(OC)c(OC(=O)Cc5ccc(F)cc5)c4[C@]2(CCN3C)CC1=O` [5k, (4bR,8aS,9S)-3,7-dimethoxy-11-methyl-6-oxo-1-(piperidin-1-ylmethyl)-6,8a,9,10-tetrahydro-5H-9,4b-(epiminoethano)phenanthren-4-yl 2-(4-fluorophenyl)acetate] showed a melting point of 128 to 130 °C.

As for `COC1=C[C@@H]2[C@@H]3Cc4c(CN5CCCCC5)cc(OC)c(OC(=O)Cc5ccc(OC)cc5)c4[C@]2(CCN3C)CC1=O` [5h, (4bR,8aS,9S)-3,7-dimethoxy-11-methyl-6-oxo-1-(piperidin-1-ylmethyl)-6,8a,9,10-tetrahydro-5H-9,4b-(epiminoethano)phenanthren-4-yl 2-(4-methoxyphenyl)acetate], the melting point fell in the range of 121 to 122 °C.
